# Assay results: BindingDB's records for doi:10.1073/pnas.0805677105 (Burnham Institute For Medical Research, 2008)
# Legend:
# [1] = target: T1, Mitogen-activated protein kinase 8 (Homo sapiens, UniProt P45983); assay: In Vitro Kinase Assay (LanthaScreen Kinase Assay); settings: pH 7.5; 22 °C
# [2] = target: T1, Mitogen-activated protein kinase 8; assay: DELFIA Assay (Dissociation Enhanced Lanthanide Fluoro-Immuno Assay); settings: pH 7.8
# Experimental: Compound was evaluated for its ability to disrupt the interaction of pepJIP1 with JNK1 by using DELFIA assay. DELFIA is a heterogeneous assay whereby a biotin-linked pepJIP1 is adsorbed onto a streptavidin-coated plate followed by incubation with GST-JNK1. […] Controls include unlabeled peptide and blanks receiving no compounds.
# T1 sequence (P45983 whole entry): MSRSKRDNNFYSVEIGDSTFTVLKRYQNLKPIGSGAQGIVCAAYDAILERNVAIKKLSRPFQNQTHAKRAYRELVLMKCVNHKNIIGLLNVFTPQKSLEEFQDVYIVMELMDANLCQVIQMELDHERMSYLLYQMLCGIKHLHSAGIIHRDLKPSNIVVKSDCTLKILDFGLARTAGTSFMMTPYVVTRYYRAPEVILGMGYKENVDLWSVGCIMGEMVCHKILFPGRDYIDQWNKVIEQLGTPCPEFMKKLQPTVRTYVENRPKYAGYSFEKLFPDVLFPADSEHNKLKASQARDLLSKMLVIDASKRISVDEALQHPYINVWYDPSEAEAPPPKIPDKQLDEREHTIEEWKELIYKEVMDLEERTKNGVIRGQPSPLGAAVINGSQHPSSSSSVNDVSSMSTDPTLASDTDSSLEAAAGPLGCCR
IC50 [1],IC50 [2],SMILES
> 100 µM,> 25 µM,"O=c1[nH]nc(Sc2ccc([N+](=O)[O-])s2)n1-c1ccc2c(c1)OCCO2 [4-(2,3-dihydro-1,4-benzodioxin-6-yl)-5-[(5-nitrothiophen-2-yl)sulfanyl]-4H-1,2,4-triazol-3-ol]"
> 100 µM,7.5 µM,"Cc1nc(Sc2nnnn2-c2ccccc2)sc1C(=O)O [4-methyl-2-[(1-phenyl-1H-1,2,3,4-tetrazol-5-yl)sulfanyl]-1,3-thiazole-5-carboxylic acid]"
> 100 µM,> 25 µM,"c1ccc(CSc2nnnn2-c2ccccc2)cc1 [5-(benzylsulfanyl)-1-phenyl-1H-1,2,3,4-tetrazole]"
3.1 µM,0.237 µM,"O=c1[nH]nc(Sc2ncc([N+](=O)[O-])s2)n1-c1ccccc1 [5-[(5-nitro-1,3-thiazol-2-yl)sulfanyl]-4-phenyl-4H-1,2,4-triazol-3-ol]"
3.3 µM,0.183 µM,"O=[N+]([O-])c1cnc(Sc2nnnn2-c2ccccc2)s1 [5-nitro-2-[(1-phenyl-1H-1,2,3,4-tetrazol-5-yl)sulfanyl]-1,3-thiazole]"
